One molecule from ChEMBL document CHEMBL1128493, “Synthesis and sigma binding properties of 2'-substituted 5,9 alpha-dimethyl-6,7-benzomorphans” (J Med Chem, 1995) can be followed below.

In general, pKi refers to the Ki on a negative log10 scale, so that one unit is a factor of ten. High values mean a low Ki, low ones a high Ki.

pKi: −log10 of the molar value.

A short description of experiment [1]: Binding affinity measured on Sigma receptor type 1 from guinea pig brain membranes using [3H]pentazocine as radioligand.
Experiment [2] can be described thus: Binding affinity at Sigma receptor type 2 on rat liver membranes receptor by [3H]DTG displacement.

With `CC1C2Cc3ccc(O)cc3C1(C)CCN2Cc1ccccc1` (single isomer, unassigned; (+)), the results for the pKi in experiment [1] and in experiment [2] were 9.17 and 5.77, respectively.
